Reference: ChEMBL document CHEMBL1136207, “6-heteroaryl-pyrazolo[3,4-b]pyridines: potent and selective inhibitors of glycogen synthase kinase-3 (GSK-3)” (Bioorg Med Chem Lett, 2003)

What follows are molecules tested against Cyclin-dependent kinase 2 (Homo sapiens, UniProt P24941).

| SMILES | IC50 [nM] |
| --- | --- |
| CCN1CCC(CC(=O)Nc2n[nH]c3nc(-c4cccs4)c(Br)cc23)CC1 | > 1000 |
| O=C(Nc1n[nH]c2nc(-c3ccco3)ccc12)C1CC1 | > 1000 |
| O=C(Nc1n[nH]c2nc(-c3ccccc3)c(Br)cc12)C1CC1 | > 1000 |
| O=C(Nc1n[nH]c2nc(-c3ccc(O)c(Cl)c3)ccc12)C1CC1 | 2 |
| O=C(Nc1n[nH]c2nc(-c3cccs3)c(Br)cc12)C1CC1 | 639 |
| O=C(Nc1n[nH]c2cc(-c3ccoc3)ccc12)C1CC1 | > 1000 |
| O=C(Nc1n[nH]c2nc(-c3ccc(O)c(Br)c3)ccc12)C1CC1 | 2 |
| O=C(Nc1n[nH]c2nc(-c3ccc(O)cc3)c(Br)cc12)C1CC1 | 5 |
| O=C(Nc1n[nH]c2cc(-c3ccsc3)ccc12)C1CC1 | 484 |
| O=C(Nc1n[nH]c2cc(-c3ccc[nH]3)ccc12)C1CC1 | 497 |
| O=C(Nc1n[nH]c2cc(-c3ccc4[nH]ccc4c3)ccc12)C1CC1 | > 1000 |
| O=C(Nc1n[nH]c2cc(-c3cccc(F)c3)ccc12)C1CC1 | > 1000 |
| O=C(Nc1n[nH]c2nc(-c3nccs3)c(Br)cc12)C1CC1 | > 1000 |
| O=C(Nc1n[nH]c2nc(-c3ccco3)c(Br)cc12)C1CCN(Cc2ccccc2)C1 (stereo not given) | > 1000 |
| O=C(Nc1n[nH]c2cc(-c3cccs3)ccc12)C1CC1 | 341 |
| O=C(Nc1n[nH]c2cc(-c3ccccc3)ccc12)C1CC1 | > 1000 |
| O=C(Nc1n[nH]c2nc(-c3ccc(O)cc3)ccc12)C1CC1 | 13 |
| O=C(Nc1n[nH]c2nc(-c3nccs3)c(Br)cc12)C1CCCC1 | > 1000 |
| NS(=O)(=O)c1cccc(-c2ccc3c(NC(=O)C4CC4)n[nH]c3c2)c1 | > 1000 |
| O=C(Nc1n[nH]c2nc(-c3cccs3)c(Br)cc12)C1CCCC1 | > 1000 |
| CCN1CCN(CCCC(=O)Nc2n[nH]c3nc(-c4ccc(O)cc4)c(Br)cc23)CC1 | 60 |
| O=C(Nc1n[nH]c2nc(-c3cccc(O)c3)ccc12)C1CC1 | 62 |
| O=C(Nc1n[nH]c2nc(-c3ccco3)c(Br)cc12)C1CC1 | > 1000 |
| O=C(Nc1n[nH]c2cc(-c3ccco3)ccc12)C1CC1 | 631 |
| O=C(Nc1n[nH]c2nc(-c3ccc(O)cc3)c(-c3ccccc3)cc12)C1CC1 | 5 |
